Earlier results, collected in patent US20030003095A1, “Activated carbon for preventing pregnancy and sexually transmitted disease” (The Procter & Gamble Company, priority 2002, published 2003).

Conditions: stated in words, no test described

| water solubility | Compound |
| --- | --- |
| water-soluble | N=C(NCCCCCCNC(=N)NC(=N)Nc1ccc(Cl)cc1)NC(=N)Nc1ccc(Cl)cc1.O=C(O)[C@H](O)[C@@H](O)[C@H](O)[C@H](O)CO.O=C(O)[C@H](O)[C@@H](O)[C@H](O)[C@H](O)CO [chlorhexidene digluconate] |
| water insoluble | Oc1cc(Cl)ccc1Oc1ccc(Cl)cc1Cl [triclosan] |

| Compound | water solubility |
| --- | --- |
| nonoxynol-9 | slightly water soluble |
